This passage reports pest or weed control results from patent publication US20230017045A1, “PYRIDINE AND PYRIMIDINE CARBOXYLATE HERBICIDES AND METHODS OF USE THEREOF” (Dow AgroSciences LLC, priority 2017, published 2023).

Molecules are shown by their SMILES. Like-named read-outs stand apart in the source and are kept apart here.

For the assay, the system named is test plant species. Description: Post-emergent herbicidal activity test (greenhouse, foliar spray, visual growth reduction). The format is in vivo. Conditions: post-emergence, 336 h, 140 g ai/ha. Summed up: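 Visual percent injury (0-100) rated 14 d after treatment, relative to nontreated and solvent-blank plants. Test plants at first or second true leaf stage received an overhead track-sprayer application at 187 L/ha. Compounds were formulated in aqueous acetone/DMSO carrier containing crop oil concentrate and X-77 surfactant.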

Where [1] appears, read: ECHCG: barnyardgrass (Echinochloa crus-galli), 14 days after application, read-out: Visual Growth Reduction (%) 14 Days After Application, ECHCG.
Setting [2] is: IPOHE: ivy-leaf morning glory (Ipomoea hederacea), 14 days after application, read-out: Visual Growth Reduction (%) 14 Days After Application, IPOHE.
The mark [3] stands for this setting: KCHSC: kochia (Bassia scoparia), 14 days after application, read-out: Visual Growth Reduction (%) 14 Days After Application, KCHSC.
The mark [4] stands for this setting: ORYSA: rice (Oryza sativa), 14 days after application, read-out: Visual Growth Reduction (%) 14 Days After Application, ORYSA.
[5] abbreviates: SETFA: giant foxtail (Setaria faberi), 14 days after application, read-out: Visual Growth Reduction (%) 14 Days After Application, SETFA.
[6] abbreviates: SORVU: grain sorghum (Sorghum vulgare), 14 days after application, read-out: Visual Growth Reduction (%) 14 Days After Application, SORVU.
Where [7] appears, read: STEME: common chickweed (Stellaria media), 14 days after application, read-out: Visual Growth Reduction (%) 14 Days After Application, STEME.
Setting [8] is: TRZAS: wheat, spring (Triticum aestivum), 14 days after application, read-out: Visual Growth Reduction (%) 14 Days After Application, TRZAS.
The mark [9] stands for this setting: blackgrass (Alopecurus myosuroides), 14 Days After Application, read-out: Visual Growth Reduction (%) ALOMY.
Setting [10] is: canada thistle (Cirsium arvense), 14 Days After Application, read-out: Visual Growth Reduction (%) CIRAR.
Setting [11] is: crabgrass (Digitaria sanguinalis), 14 Days After Application, read-out: Visual Growth Reduction (%) DIGSA.
Setting [12] is: lambsquarters (Chenopodium album), 14 Days After Application, read-out: Visual Growth Reduction (%) CHEAL.
[13] abbreviates: redroot pigweed (Amaranthus retroflexus), 14 Days After Application, read-out: Visual Growth Reduction (%) AMARE.
The mark [14] stands for this setting: wild oat (Avena fatua), 14 Days After Application, read-out: Visual Growth Reduction (%) AVEFA.
[15] abbreviates: yellow nutsedge (Cyperus esculentus), 14 Days After Application, read-out: Visual Growth Reduction (%) CYPES.

With `COC(=O)c1nc(-c2cc(C#N)c(C(F)(F)F)cc2Cl)ccc1Cl` [F326, Methyl 3-chloro-6-(2-chloro-5-cyano-4-(trifluoromethyl)phenyl)picolinate], the pest or weed control at 140 g/ha runs as follows: under setting [1], 75 to 84%; under setting [2], 0 to 29%; under setting [3], 0 to 29%; under setting [4], 0 to 29%; under setting [5], 30 to 44%; under setting [6], 95 to 100%. In addition, the pest or weed control at 140 g/ha reads like this: under setting [7], 0 to 29%; under setting [8], 0 to 29%; under setting [9], 0 to 29%; under setting [10], 45 to 59%; under setting [11], 75 to 84%; under setting [12], 60 to 74%. The pest or weed control at 140 g/ha under setting [13] was in the range of 0 to 29%, the pest or weed control at 140 g/ha under setting [14] is 0 to 29% and the pest or weed control at 140 g/ha under setting [15] lay within 0 to 29%.

Take `COC(=O)c1nc(-c2cc3nonc3cc2F)c(Cl)cc1Cl` [F327, Methyl 3,5-dichloro-6-(6-fluorobenzo[c][1,2,5]oxadiazol-5-yl)picolinate]: the pest or weed control at 140 g/ha fell in the range of 0 to 29% under setting [1]; 75 to 84% under setting [2]; 0 to 29% under setting [3]; 0 to 29% under setting [4]; 30 to 44% under setting [5]; 0 to 29% under setting [6]. Besides, the pest or weed control at 140 g/ha by setting is: under setting [7], 0 to 29%; under setting [8], 0 to 29%; under setting [9], 0 to 29%; under setting [10], 0 to 29%; under setting [11], 0 to 29%; under setting [12], 30 to 44%. The pest or weed control at 140 g/ha lay within 30 to 44% under setting [13], 0 to 29% under setting [14] and 0 to 29% under setting [15].

As to `COC(=O)c1nc(-c2ccc(I)cc2F)c(F)cc1Cl` [F328, methyl 3-chloro-5-fluoro-6-(2-fluoro-4-iodophenyl)picolinate], the pest or weed control at 140 g/ha runs as follows: under setting [1], 0 to 29%; under setting [2], 85 to 94%; under setting [3], 0 to 29%; under setting [4], 0 to 29%; under setting [5], 30 to 44%; under setting [6], 75 to 84%. In addition, the pest or weed control at 140 g/ha was in the range of 0 to 29% under setting [7]; 0 to 29% under setting [8]; 0 to 29% under setting [9]; 0 to 29% under setting [10]; 75 to 84% under setting [11]; 0 to 29% under setting [12]. For the same compound, the pest or weed control at 140 g/ha is, setting by setting: under setting [13], 30 to 44%; under setting [14], 0 to 29%; under setting [15], 0 to 29%.

As to `N#Cc1cc(-c2nc(C(=O)O)c(Cl)cc2F)c(Cl)cc1C(F)(F)F` [F329, 3-Chloro-6-(2-chloro-5-cyano-4-(trifluoromethyl)phenyl)-5-fluoropicolinic acid], the pest or weed control at 140 g/ha lay in the range of 60 to 74% under setting [1]; 95 to 100% under setting [2]; 60 to 74% under setting [3]; 0 to 29% under setting [4]; 85 to 94% under setting [5]; 75 to 84% under setting [6]. In addition, the pest or weed control at 140 g/ha lay within 0 to 29% under setting [7]; 45 to 59% under setting [8]; 0 to 29% under setting [9]; 85 to 94% under setting [10]; 75 to 84% under setting [11]; 75 to 84% under setting [12]. The pest or weed control at 140 g/ha lay within 60 to 74% under setting [13], 60 to 74% under setting [14] and 0 to 29% under setting [15].

For `COC(=O)c1nc(-c2ccc3ccsc3c2F)c(Cl)cc1Cl` [F330, Methyl 3,5-dichloro-6-(7-fluorobenzo[b]thiophen-6-yl)picolinate], the pest or weed control at 140 g/ha under setting [1] lay within 0 to 29%; the pest or weed control at 140 g/ha under setting [2] lay in the range of 0 to 29%; the pest or weed control at 140 g/ha under setting [3] lay in the range of 0 to 29%; the pest or weed control at 140 g/ha under setting [4] fell in the range of 0 to 29%; the pest or weed control at 140 g/ha under setting [5] fell in the range of 0 to 29%; the pest or weed control at 140 g/ha under setting [6] lay in the range of 0 to 29%. Moreover, the pest or weed control at 140 g/ha reads like this: under setting [7], 0 to 29%; under setting [8], 0 to 29%; under setting [9], 0 to 29%; under setting [11], 0 to 29%; under setting [12], 0 to 29%; under setting [13], 0 to 29%. The pest or weed control at 140 g/ha runs as follows: under setting [14], 0 to 29%; under setting [15], 30 to 44%.

As for `COC(=O)c1nc(-c2cc(OC)c(C(F)(F)F)cc2Cl)c(F)cc1Cl` [F331, Methyl 3-chloro-6-(2-chloro-5-methoxy-4-(trifluoromethyl)phenyl)-5-fluoropicolinate], the pest or weed control at 140 g/ha under setting [1] was 0 to 29%; the pest or weed control at 140 g/ha under setting [2] was in the range of 95 to 100%; the pest or weed control at 140 g/ha under setting [3] fell in the range of 60 to 74%; the pest or weed control at 140 g/ha under setting [4] was in the range of 0 to 29%; the pest or weed control at 140 g/ha under setting [5] fell in the range of 0 to 29%; the pest or weed control at 140 g/ha under setting [6] lay within 45 to 59%. Also, the pest or weed control at 140 g/ha is 0 to 29% under setting [7]; 0 to 29% under setting [8]; 0 to 29% under setting [9]; 0 to 29% under setting [11]; 45 to 59% under setting [12]; 45 to 59% under setting [13]. In addition, the pest or weed control at 140 g/ha is, setting by setting: under setting [14], 0 to 29%; under setting [15], 0 to 29%.

`COC(=O)c1nc(-c2cc(SC)c(C(F)(F)F)cc2Cl)c(F)cc1Cl` [F332, Methyl 3-chloro-6-(2-chloro-5-(methylthio)-4-(trifluoromethyl)phenyl) 5-fluoropicolinate]: the pest or weed control at 140 g/ha was in the range of 0 to 29% under setting [1]; 0 to 29% under setting [2]; 30 to 44% under setting [3]; 0 to 29% under setting [4]; 0 to 29% under setting [5]; 0 to 29% under setting [6]. The pest or weed control at 140 g/ha by setting is: under setting [7], 0 to 29%; under setting [8], 0 to 29%; under setting [9], 0 to 29%; under setting [11], 0 to 29%; under setting [12], 0 to 29%; under setting [13], 0 to 29%. The pest or weed control at 140 g/ha was 0 to 29% under setting [14] and 0 to 29% under setting [15].

For `COC(=O)c1nc(-c2cc3c(cc2OC)OC(F)(F)O3)c(F)cc1Cl` [F333, Methyl 3-chloro-6-(2,2-difluoro-6-methoxybenzo[d][1,3]dioxol-5-yl)-5-fluoropicolinate], the pest or weed control at 140 g/ha under setting [1] is 30 to 44%; the pest or weed control at 140 g/ha under setting [2] was in the range of 95 to 100%; the pest or weed control at 140 g/ha under setting [3] was in the range of 30 to 44%; the pest or weed control at 140 g/ha under setting [4] was 0 to 29%; the pest or weed control at 140 g/ha under setting [5] fell in the range of 30 to 44%; the pest or weed control at 140 g/ha under setting [6] was 85 to 94%. Further, the pest or weed control at 140 g/ha runs as follows: under setting [7], 0 to 29%; under setting [8], 45 to 59%; under setting [9], 0 to 29%; under setting [11], 60 to 74%; under setting [12], 0 to 29%; under setting [13], 30 to 44%. For the same compound, the pest or weed control at 140 g/ha runs as follows: under setting [14], 0 to 29%; under setting [15], 0 to 29%.
